Test results published in patent publication US7598242B2 (priority 2001, dated 2009).

Each molecule was assayed against T1, purified catalytic domain of recombinant human TACE (rhTACEc) (Homo sapiens, UniProt P78536, N452Q/S266A) (assay: biochemical).
T1 construct: Residue 215 to 477 with two mutation (S266A and N452Q) and a 6×His tail; 6xHis (C); made in house; host or cells: baculovirus/Hi5 insect cells
T1 sequence (P78536 215-477 S266A/N452Q): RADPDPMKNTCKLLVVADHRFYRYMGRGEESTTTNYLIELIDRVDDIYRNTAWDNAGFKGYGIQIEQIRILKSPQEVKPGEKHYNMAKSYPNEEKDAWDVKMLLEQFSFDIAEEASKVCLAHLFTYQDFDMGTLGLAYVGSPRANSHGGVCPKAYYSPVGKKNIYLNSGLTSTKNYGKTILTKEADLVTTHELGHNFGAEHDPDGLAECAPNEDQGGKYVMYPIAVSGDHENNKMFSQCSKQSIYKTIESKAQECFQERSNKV

Row | Structure (SMILES) | Ki
1 | Cc1cc(COc2ccc(C[C@]3(C(=O)N(C)C)C[C@@H]3C(=O)NO)cc2)c2ccccc2n1 [BL] | < 20 nM
2 | COC(=O)[C@@]1(Cc2ccc(OCc3cc(-c4ccncc4)nc4ccccc34)c(F)c2)C[C@@H]1C(=O)NO [LI] | < 20 nM
3 | Cc1cc(COc2ccc(C[C@]3(C(N)=O)C[C@@H]3C(=O)NO)cc2F)c2ccccc2n1 [CV] | < 20 nM
4 | Cc1cc(COc2cccc([C@@]3(C(=O)NC4CCCCC4)C[C@H]3C(=O)NO)c2)c2ccccc2n1 [JY] | < 20 nM
5 | CCOC(=O)[C@@]1(Cc2ccc(OCc3cc(-c4cccnc4)nc4ccc(C)cc34)c(F)c2)C[C@@H]1C(=O)NO [GV] | < 20 nM
6 | CCc1cc(COc2ccc(C[C@]3(C(=O)N4CC[C@H](N(C)C)C4)C[C@@H]3C(=O)NO)cc2F)c2ccccc2n1 [JT] | < 20 nM
7 | CN(C)c1cc(COc2ccc(C[C@]3(C(N)=O)C[C@@H]3C(=O)NO)cc2F)c2ccccc2n1 [CN] | < 20 nM
8 | Cc1cc(COc2ccc(C[C@]3(C(N)=O)C[C@@H]3C(=O)NO)cc2Cl)c2ccccc2n1 [FN] | < 20 nM
9 | CCc1cc(COc2ccc(C[C@]3(C(=O)N4CC[C@H](N(C)C)C4)C[C@@H]3C(=O)NO)cc2)c2ccccc2n1 [JF] | < 20 nM
10 | NC(=O)[C@@]1(Cc2ccc(OCc3cc(-c4ccccn4)nc4ccccc34)c(F)c2)C[C@@H]1C(=O)NO [CS] | < 20 nM
11 | CN(C)C1CCN(C(=O)[C@@]2(Cc3ccc(OCc4cc(-c5ccncc5)nc5ccccc45)c(F)c3)C[C@@H]2C(=O)NO)C1 (some centres unmarked) [JV] | < 20 nM
12 | Cc1cc(COc2ccc(C[C@]3(C(N)=O)C[C@@H]3C(=O)NO)cc2Br)c2ccccc2n1 [FQ] | < 20 nM
13 | CN(C)CCN(C)C(=O)[C@@]1(Cc2ccc(OCc3cc(-c4ccccc4)nc4ccccc34)cc2)C[C@@H]1C(=O)NO [JD] | < 20 nM
14 | NC(=O)[C@@]1(Cc2ccc(OCc3cc(C4CC4)nc4ccccc34)c(F)c2)C[C@@H]1C(=O)NO [CU] | < 20 nM
15 | NC(=O)[C@@]1(Cc2ccc(OCc3cc(-c4ccccc4Cl)nc4ccccc34)c(F)c2)C[C@@H]1C(=O)NO [CW] | < 20 nM
16 | N[C@@H]1CCN(C(=O)[C@@]2(Cc3ccc(OCc4cc(-c5ccccc5)nc5ccccc45)cc3)C[C@@H]2C(=O)NO)C1 [KZ] | < 20 nM
17 | COC(=O)[C@@]1(Cc2ccc(OCc3cc(N4CCCC4)nc4ccccc34)c(F)c2)C[C@@H]1C(=O)NO [FY] | < 20 nM
18 | CCc1cc(COc2ccc(C[C@]3(C(=O)OC)C[C@@H]3C(=O)NO)cc2F)c2ccccc2n1 [DB] | < 20 nM
19 | CCc1cc(COc2ccc(C[C@]3(C(=O)N4CC[C@H](O)C4)C[C@@H]3C(=O)NO)cc2)c2ccccc2n1 [JC] | < 20 nM
20 | Cc1cc(COc2ccc(C[C@]3(C#N)C[C@@H]3C(=O)NO)cc2)c2ccccc2n1 [FG] | < 20 nM
21 | CNc1cc(COc2ccc(C[C@]3(C(=O)OC)C[C@@H]3C(=O)NO)cc2F)c2ccccc2n1 [GB] | < 20 nM
22 | Cc1cc(COc2ccc(C[C@]3(C(=O)N(C)C)C[C@@H]3C(=O)NO)cc2F)c2ccccc2n1 [JO] | < 20 nM
23 | CCCc1cc(COc2ccc(C[C@]3(C(N)=O)C[C@@H]3C(=O)NO)cc2F)c2ccccc2n1 [CR] | < 20 nM
24 | COC(=O)[C@@]1(Cc2ccc(OCc3cc(N4CCOCC4)nc4ccccc34)c(F)c2)C[C@@H]1C(=O)NO [FZ] | < 20 nM
25 | Cc1cc(COc2cccc([C@@]3(C(=O)OC(C)C)C[C@H]3C(=O)NO)c2)c2ccccc2n1 [KM] | < 20 nM
26 | Cc1cc(COc2ccc(C[C@]3(C(=O)NCc4ccccc4)C[C@@H]3C(=O)NO)cc2)c2ccccc2n1 [O] | < 20 nM
27 | CCc1cc(COc2ccc(C[C@]3(C(=O)N4CC[C@H](O)C4)C[C@@H]3C(=O)NO)cc2F)c2ccccc2n1 [JR] | < 20 nM
28 | CCc1cc(COc2ccc(C[C@]3(C(=O)N4CC[C@@H](NC(=O)C(F)(F)F)C4)C[C@@H]3C(=O)NO)cc2F)c2ccccc2n1 [JU] | < 20 nM

Now from value to molecule:

Row | Ki | Structure (SMILES)
29 | < 20 nM | CN1CCN(c2cc(COc3ccc(C[C@]4(C(N)=O)C[C@@H]4C(=O)NO)cc3F)c3ccccc3n2)CC1 [FX]
30 | < 20 nM | CCc1cc(COc2ccc(C[C@]3(C(N)=O)C[C@@H]3C(=O)NO)cc2F)c2ccccc2n1 [CO]
31 | < 20 nM | NC(=O)[C@@]1(Cc2ccc(OCc3cc(N4CCCCC4)nc4ccccc34)c(F)c2)C[C@@H]1C(=O)NO [LM]
32 | < 20 nM | CC1CCCN1c1cc(COc2ccc(C[C@]3(C(N)=O)C[C@@H]3C(=O)NO)cc2F)c2ccccc2n1 (some centres unmarked) [FV]
33 | < 20 nM | Cc1cc(COc2ccc(C[C@]3(C(=O)NCc4cccnc4)C[C@@H]3C(=O)NO)cc2)c2ccccc2n1 [P]
34 | < 20 nM | CCOC(=O)[C@@]1(Cc2ccc(OCc3ccnc(N4CCOCC4)c3)cc2)C[C@@H]1C(=O)NO [LH]
35 | < 20 nM | O=C(NO)[C@H]1C[C@]1(Cc1ccc(OCc2cc(-c3ccccc3)nc3ccccc23)cc1)C(=O)N1CC[C@H](NC(=O)C(F)(F)F)C1 [JE]
36 | < 20 nM | CCc1cc(COc2ccc(C[C@]3(C(=O)N4CC[C@@H](N)C4)C[C@@H]3C(=O)NO)cc2F)c2ccccc2n1 [JS]
37 | < 20 nM | CN(C)CCNC(=O)[C@@]1(Cc2ccc(OCc3cc(C(F)(F)F)nc4ccccc34)cc2)C[C@@H]1C(=O)NO [BP]
38 | < 20 nM | CN(C)C(=O)[C@@]1(Cc2ccc(OCc3cc(-c4ccncc4)nc4ccccc34)c(F)c2)C[C@@H]1C(=O)NO [CZ]
39 | < 20 nM | NC(=O)[C@@]1(Cc2ccc(OCc3cc(-c4cccnc4)nc4ccccc34)cc2)C[C@@H]1C(=O)NO [DA]
40 | < 20 nM | Cc1cc(COc2ccc(C[C@]3(C(=O)N4CCC[C@H]4CO)C[C@@H]3C(=O)NO)cc2)c2ccccc2n1 [JG]
41 | < 20 nM | CN(C)C(=O)[C@@]1(Cc2ccc(OCc3cc(C(F)(F)F)nc4ccccc34)cc2)C[C@@H]1C(=O)NO [BO]
42 | < 20 nM | COC(=O)[C@@]1(Cc2ccc(OCc3cc(N4CCN(C)CC4)nc4ccccc34)c(F)c2)C[C@@H]1C(=O)NO [GA]
43 | < 20 nM | O=C1CN(C(=O)[C@@]2(Cc3ccc(OCc4cc(-c5ccccc5)nc5ccccc45)cc3)C[C@@H]2C(=O)NO)CCN1 [BQ]
44 | < 20 nM | NC(=O)[C@@]1(Cc2ccc(OCc3cc(-c4ccc(Cl)cc4)nc4ccccc34)c(F)c2)C[C@@H]1C(=O)NO [CY]
